Results as given in ChEMBL document CHEMBL1201862, “PubChem BioAssay data set” (2004).
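Cultured in 96-well plates, cells were exposed to test compound for 48 hours across five concentrations. Abbreviation: GI50, concentration required for 50% inhibition of growth.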 Active and inactive are the calls of the source. No stated cut-off is given here; in the data, active = GI50 up to about 1.1 µM and inactive = higher.

Tests used:
Assay in all cases: growth of human tumour cells (NCI), 48 h
RXF 393 = test system: RXF 393
U-251 = test system: U-251
NCI-H23 = test system: NCI-H23
NCI-H460 = test system: NCI-H460
HOP-92 = test system: HOP-92
M14 = test system: M14
CCRF-CEM = test system: CCRF-CEM
SF-295 = test system: SF-295
COLO 205 = test system: COLO 205
HOP-62 = test system: HOP-62
SNB-78 = test system: SNB-78
EKVX = test system: EKVX
SK-OV-3 = test system: SK-OV-3
HL-60 = test system: HL-60
SF-539 = test system: SF-539
OVCAR-8 = test system: OVCAR-8
HCT-15 = test system: HCT-15

| SMILES | GI50 (RXF 393) | GI50 (U-251) | GI50 (NCI-H23) | GI50 (NCI-H460) | GI50 (HOP-92) | GI50 (M14) | GI50 (CCRF-CEM) | GI50 (SF-295) | GI50 (COLO 205) | GI50 (HOP-62) | GI50 (SNB-78) | GI50 (EKVX) | GI50 (SK-OV-3) | GI50 (HL-60) | GI50 (SF-539) | GI50 (OVCAR-8) | GI50 (HCT-15) |
| --- | --- | --- | --- | --- | --- | --- | --- | --- | --- | --- | --- | --- | --- | --- | --- | --- | --- |
| CC(=O)O[C@H]1C=CC23OC(=O)[C@]1(C)[C@H]2[C@H](C(=O)O)C12CC(=O)[C@@](CO)(CC[C@H]13)C2 | > 100 µM (inactive) | > 100 µM (inactive) | > 100 µM (inactive) | > 100 µM (inactive) | > 100 µM (inactive) | > 100 µM (inactive) | > 100 µM (inactive) | > 100 µM (inactive) | > 100 µM (inactive) | > 100 µM (inactive) | > 100 µM (inactive) | > 100 µM (inactive) | > 100 µM (inactive) | > 100 µM (inactive) | > 100 µM (inactive) | > 100 µM (inactive) | > 100 µM |
| COC(=O)/C=C(C)/C=C/c1c(C)c(C(C)=O)c(C)n1C | – | > 100 µM (inactive) | > 100 µM (inactive) | – | 18.3 µM (inactive) | > 100 µM (inactive) | > 100 µM (inactive) | > 100 µM (inactive) | > 100 µM (inactive) | > 100 µM (inactive) | > 100 µM (inactive) | 88.5 µM (inactive) | > 100 µM (inactive) | 49.9 µM (inactive) | > 100 µM (inactive) | > 100 µM (inactive) | > 100 µM |
| CSC(=S)NNC(=O)c1ccncc1 | 16.1 µM (inactive) | 22.5 µM (inactive) | 16.1 µM (inactive) | 46.6 µM (inactive) | 25.3 µM (inactive) | 19 µM (inactive) | 18.9 µM (inactive) | 22.6 µM (inactive) | 34.9 µM (inactive) | 20.8 µM (inactive) | 28.2 µM (inactive) | 22.2 µM (inactive) | 28.8 µM (inactive) | 20 µM (inactive) | 19.8 µM (inactive) | 19.8 µM (inactive) | 15 µM |
| O=C1OC(CC(=O)c2ccc(F)cc2)C(Cl)=C1Cl (configuration not stated) | 21.6 µM (inactive) | 20 µM (inactive) | 29.6 µM (inactive) | 21.5 µM (inactive) | 20 µM (inactive) | 22.9 µM (inactive) | 29.4 µM (inactive) | > 100 µM (inactive) | – | 32.1 µM (inactive) | 37.9 µM (inactive) | 48.4 µM (inactive) | 49 µM (inactive) | 24.7 µM (inactive) | 19 µM (inactive) | 19.4 µM (inactive) | 18.4 µM |
| O=C(CC1(O)C(=O)Nc2ccc([N+](=O)[O-])cc21)c1ccc(Br)cc1 (configuration not stated) | 28.6 µM (inactive) | 22.3 µM (inactive) | 40.6 µM (inactive) | > 100 µM (inactive) | – | > 100 µM (inactive) | 47.4 µM (inactive) | 52.6 µM (inactive) | > 100 µM (inactive) | > 100 µM (inactive) | 23.2 µM (inactive) | > 100 µM (inactive) | 25.1 µM (inactive) | 18.6 µM (inactive) | 59.4 µM (inactive) | 39.8 µM (inactive) | > 100 µM |
| COc1cc2c(c(OC)c1OC)-c1ccc(SC)c(=O)cc1[C@@H](NCc1ccccc1[N+](=O)[O-])CC2 | 0.00286 µM (active) | 0.0154 µM (active) | 0.00429 µM (active) | 0.0168 µM (active) | 0.0257 µM (active) | 0.00546 µM (active) | 0.00532 µM (active) | 0.00826 µM (active) | 0.0082 µM (active) | 0.0174 µM (active) | 0.00682 µM (active) | 0.0564 µM (active) | 0.0041 µM (active) | 0.00313 µM (active) | 0.00525 µM (active) | 0.0184 µM (active) | 0.0113 µM |
| O=C(/C=C/c1ccc(OCCCOc2ccc(/C=C/C(=O)c3ccc(Cl)cc3)cc2)cc1)c1ccc(Cl)cc1 | > 100 µM (inactive) | > 100 µM (inactive) | > 100 µM (inactive) | > 100 µM (inactive) | > 100 µM (inactive) | > 100 µM (inactive) | > 100 µM (inactive) | > 100 µM (inactive) | > 100 µM (inactive) | > 100 µM (inactive) | > 100 µM (inactive) | > 100 µM (inactive) | > 100 µM (inactive) | > 100 µM (inactive) | > 100 µM (inactive) | > 100 µM (inactive) | > 100 µM |
| CCNc1nc2c(=O)n(C)c(=O)n(C)c2s1 | > 100 µM (inactive) | > 100 µM (inactive) | > 100 µM (inactive) | > 100 µM (inactive) | > 100 µM (inactive) | > 100 µM (inactive) | > 100 µM (inactive) | > 100 µM (inactive) | > 100 µM (inactive) | > 100 µM (inactive) | > 100 µM (inactive) | > 100 µM (inactive) | > 100 µM (inactive) | > 100 µM (inactive) | > 100 µM (inactive) | > 100 µM (inactive) | > 100 µM |
